What was measured:
[1] = in some drug formulations; cited from earlier work
[2] = aqueous and organic solvent systems, Form A compared with Form B; cited from earlier work
[3] = upon contact with a solvent or solvent mixture (e.g., ethyl acetate and ethanol); cited from earlier work
[4] = Granulation effect on the polymorphic transformation of Form A; type: physicochemical; conditions: dry industrial batch of Form A; for % Form B after granulation: after industrial granulation; for % Form B prior to granulation: before industrial granulation
[5] = tested on: preclinical models of uterine stimulation; conditions: cited from earlier work
[6] = tested on: ovariectomized rat model of osteopenia; conditions: cited from earlier work
[7] = tested on: MCF-7 cell line (human breast cancer cell line); conditions: cited from earlier work

## Cc1c(-c2ccc(O)cc2)n(Cc2ccc(OCCN3CCCCCC3)cc2)c2ccc(O)cc12 [Form A, 1-[4-(2-azepan-1-yl-ethoxy)-benzyl]-2-(4-hydroxy-phenyl)-3-methyl-1H-indol-5-ol acetic acid]
[1]
  bioavailability: better bioavailability
[2]
  solubility: higher solubility
[3]
  conversion of Form A to Form B: can easily convert to Form B

## Cc1c(-c2ccc(O)cc2)n(Cc2ccc(OCCN3CCCCCC3)cc2)c2ccc(O)cc12 [batch 8.4]
[4]; listed as 8.4
  % Form B after granulation: 0.2%
  % Form B prior to granulation: 0.3%

## Cc1c(-c2ccc(O)cc2)n(Cc2ccc(OCCN3CCCCCC3)cc2)c2ccc(O)cc12 [batch 8.5]
[4]; listed as 8.5
  % Form B after granulation: 0.6%
  % Form B prior to granulation: 0.5%

## Cc1c(-c2ccc(O)cc2)n(Cc2ccc(OCCN3CCCCCC3)cc2)c2ccc(O)cc12 [batch 8.6]
[4]; listed as 8.6
  % Form B after granulation: 0.1%

## Cc1c(-c2ccc(O)cc2)n(Cc2ccc(OCCN3CCCCCC3)cc2)c2ccc(O)cc12 [batch 8.7]
[4]; listed as 8.7
  % Form B after granulation: 0.2%
  % Form B prior to granulation: 0.3%

## Cc1c(-c2ccc(O)cc2)n(Cc2ccc(OCCN3CCCCCC3)cc2)c2ccc(O)cc12 [bazedoxifene acetate, 1-[4-(2-azepan-1-yl-ethoxy)-benzyl]-2-(4-hydroxy-phenyl)-3-methyl-1H-indol-5-ol acetic acid]
[5]
  stimulation of uterine response: little or no stimulation of uterine response
[6]
  effect in preventing bone loss and reducing cholesterol: estrogen agonist-like effect
[7]
  estrogen antagonist behaviour: behaves as an estrogen antagonist

— patent publication US8618284B2 (Wyeth LLC, priority 2008, dated 2013)
